From US8729053B2, “Nuclear factor kappa B pathway inhibitor composition and use of same” (The United States of America, as represented by the …, priority 2008, dated 2014)
Entries after “also recorded” stand apart in the source; their conditions may differ. Structures can show the parent of a compound that is named as a salt.

Columns and labels:
Format in all cases: cell-based
[1] = system: MCF-7, T47D, and MDA-MB-231 breast cancer cell lines; assay: Matrigel invasion assay
Procedure: Breast cancer cell lines, MCF-7, T47D, and MDA-MB-231 were used to measure the effect of compound I on TPA-induced invasion activity using Matrigel Invasion Chamber (BD Bioscience, San Jose, Calif.) according to the manufacturer's protocol. Matrigel-coated chambers containing an 8 μm pore size filter were fitted into a 24-well tissue culture plate. Briefly, breast cancer cells (1×10^5 cells/ml) of each cell line were seeded into […] Matrigel-coated chambers with DMSO, TPA, or TPA plus compound I conditions and incubated for 24 hrs. The media wells for each plate contained only standard growth medium. After 24 hrs the non-invading cells were removed from the upper side of the chamber by cotton tipped applicators. The invaded cells on the bottom side were stained using Diff-Quik staining (Dade Behring, Deerfield, Ill.) and photographed. Three independent results were very similar.
In order to evaluate the potential therapeutic activity of the compound, tests for the biological activity of compound I were performed. […] Following anchorage-independent colony induction in TPA-treated cells without or with compound I, colonies were lysed and measured with CyQuant GR Dye to detect DNA by fluorescence plate reader as a measure of colony count. Total transformed colony numbers were calculated from RFU and cell dose curve of JB6 cells. […]

[2] = system: SRE (Serum response element); assay: SRE luciferase reporter assay in HEK293 cells; conditions: HEK293, TPA 10 ng/ml 18 hours
Procedure: All expression plasmids were transiently transfected into HEK293 cells in a 96-well plate (0.1 μg/well) by using Effectene transfection reagent (Qiagen, Valencia, Calif.) according to the manufacturer's manual. HEK293 cells were maintained in Dulbecco's modified Eagle medium (Sigma, St. Louis, Mo.) supplemented with 10% fetal bovine serum (Atlanta Biologicals, Lawrenceville, Ga.) and incubated at 37° C. in a 5% CO2 incubator. After 24 hrs incubation, the medium was changed to DMEM with 0.2% FBS, and the transfectants were exposed to various concentrations of compound I and TPA (10 ng/ml). Cells were lysed with passive lysis buffer and the luciferase assay was performed using the Firefly-Luciferase reporter assay system (Promega, Madison, Wis.) and MLX Luminometer (Dynex Technology, Chantilly, Va.).
Three different luciferase reporter genes, AP-1 reporter containing four times TRE consensus originated from GCN4 and SRE reporter purchased from Stratagene (La Jolla, Calif.) respectively are as described previously (Suzukawa et al., Environ. Health Perspect., 2002, 110, 865-70). NFκB reporter is driven by five times NFκB responsive element inserted into Cis-reporter backbone (Stratagene, La Jolla, Calif.). […]

IκBα = assay: Phosphorylated IκBα levels in TPA treated breast cancer cell lines; conditions: TPA treated MCF-7, T47D, MDA-MB-231
Procedure: In order to evaluate the potential therapeutic activity of the compound, tests for the biological activity of compound I were performed. The compound is non-toxic to MCF-7, T47D, and MDA-MB-231 breast cancer cells as estimated by XTT assay at 10 μM. To determine the effects of compound I on invasion by breast cancer cell lines, a matrigel invasion assay was used. The levels of phosphorylated IκBα were confirmed in TPA treated ER-positive (MCF-7 and T47D) and ER-negative (MDA-MB-231) breast cancer cell lines and compared the levels to those after pretreatment with compound I. Although induced levels of phosphorylated IκBα varied with the cell line, IκBα phosphorylation was eliminated by compound I treatment in all three breast cancer cell lines. Compound I also produced no effect on the estrogen receptor activity in the ER-positive breast cancer cells using ERE promoter luciferase reporter assay. Invasion capacity of breast cancer cells was increased by TPA stimulation compared to DMSO treated vehicle control. […] Following anchorage-independent colony induction in TPA-treated cells without or with compound I, colonies were lysed and measured with CyQuant GR Dye to detect DNA by fluorescence plate reader as a measure of colony count. Total transformed colony numbers were calculated from RFU and cell dose curve of JB6 cells. […]

SMILES: Cc1cc(N)ccc1N=Nc1ccc(S(=O)(=O)CCOS(=O)(=O)O)cc1 [compound I, 2-(4-((4-amino-2-methylphenyl)diazenyl)phenylsulfonyl)ethyl hydrogen sulfate]
- Basal invasive activity ([1]; MBA-MB-231 cells): completely inhibited
- TPA-increased invasion ([1]; three breast cancer cell lines, 24 hrs): completely inhibited; also recorded: inhibits
- TPA-induced SRE luciferase activity [2]: repressed but to a lesser degree than AP-1
- IκBα phosphorylation in breast cancer cell lines (IκBα): eliminated
